# Measurements: patent US5739114A, “Immunosuppressive cyclolignan derivatives” (Universidad de Salamanca, priority 1994, dated 1998)
# Like-named read-outs stand apart in the source and are kept apart here.
# Legend:
# [1] = Cytotoxicity for monkey kidney fibroblasts; format: cell-based
# Text: ^d IC50 (μg/ml) for monkey kidney fibroblasts.
# graft (implant duration) = test: in vivo Suppression Graft (SG) test
# Text: ^c % of implant duration with respect to non treated animals.
# ^e 20% of the animals died in this experiment before the end of the
# program (30 days of observation).
# [2] = test system: Graft-vs.-Host Reaction (spleen weight); test: in vivo Graft-vs.-Host Reaction (GVHR) test
# Text: ^b % reduction of spleen weight with respect to non treated animals.
compound,measurement,setting,value
"COc1cc([C@@H]2c3cc(O)c(O)cc3[C@@H](O)[C@H]3COC(=O)[C@H]23)cc(OC)c1OC [AP-39, 3,4-O-demethyleneepipodophyllotoxin]",CC50,[1]; read-out: Cytotox. IC50,> 10 mg/L
same,SG index: % of implant duration with respect to non treated animals,graft (implant duration); dose 1.5 mg/kg/day (7 days),200%
"COC(=O)C1Oc2cc3c(cc2O1)[C@@H](c1cc(OC)c(OC)c(OC)c1)[C@@H]1C(=O)OC[C@@H]1C3 (stereo partly shown) [AP-47, 10-methoxycarbonyldeoxypicropodophyllin]",CC50,[1]; read-out: Cytotox. IC50,2.5 mg/L
same,GVHR index: % reduction of spleen weight with respect to non treated animals,[2]; dose 10 mg/kg/day (7 days),56%
"COc1cc([C@@H]2c3cc(O)c(O)cc3C[C@H]3COC(=O)[C@H]32)cc(OC)c1OC [AP-37, 3,4-O-demethylenedeoxypicropodophyllin]",CC50,[1]; read-out: Cytotox. IC50,> 20 mg/L
same,GVHR index: % reduction of spleen weight with respect to non treated animals,[2]; dose 0.1 mg/kg/day (7 days),58%
"COc1cc([C@@H]2c3cc(O)c(O)cc3[C@H](O)[C@H]3COC(=O)[C@H]23)cc(OC)c1OC [AP-40, 3,4-O-demethylenepodophyllotoxin]",CC50,[1]; read-out: Cytotox. IC50,0.5 mg/L
same,SG index: % of implant duration with respect to non treated animals,graft (implant duration); dose 1.5 mg/kg/day (7 days),229%
"O=P1(N(CCCl)CCCl)NCCCO1 (stereo not shown) [Cyclophosphamide, reference compound]",GVHR index: % reduction of spleen weight with respect to non treated animals,[2]; dose 200 mg/kg/day (7 days),79%
"COC(=O)C1C2CN(c3ccccc3)N=C2c2cc3c(cc2C1c1cc(OC)c(OC)c(OC)c1)OCO3 (stereo not shown) [LL-4, methyl phenylpyrazopodophyllate]",CC50,[1]; read-out: Cytotox. IC50,1 mg/L
same,GVHR index: % reduction of spleen weight with respect to non treated animals,[2]; dose 1 mg/kg/day (7 days),53%
"COc1cc(C2c3cc4c(cc3C3=NOCC3C2C(=O)O)OCO4)cc(OC)c1OC (stereo not shown) [LL-11, isoxazopodophyllic acid]",CC50,[1],> 10 mg/L
same,SG index: % of implant duration with respect to non treated animals,graft (implant duration); dose 0.15 mg/kg/day (7 days),204%
